Results: patent publication US20060223837A1 (priority 2005, published 2006)

Target: T1, human VR1 (Homo sapiens, UniProt Q8NER1)
T1 construct: expressed in transfected cells; host or cells: HEK293
Assay: Human VR1 functional assay (FLIPR intracellular Ca2+)
Type: cell-based
Settings: for IC50: antagonism of capsaicin-induced Ca2+ increase, read-out: h IC50; for inhibition at 5 µM: read-out: h % I (5 μM); for inhibition at 1 µM: read-out: h % I (1 μM)
Protocol: The functional activity of the test compounds was determined by measuring changes in intracellular calcium concentration using a Ca^2+-sensitive fluorescent dye and FLIPR™ technology. Increases in Ca^2+ concentration were readily detected upon challenge with capsaicin. HEK293 Cells expressing human VR1 were grown on poly-D-lysine coated 384 well black-walled plates (BD 354663) and 1 day later loaded with Calcium 3 Dye for 35 min at 37 C, 5% CO2 and then for 25 min at room temperature, and subsequently tested for agonist-induced increases in intracellular Ca^2+ levels using FLIPR™ technology. Cells were challenged with test compounds (at varying concentrations, which are indicated in parentheses in the heading of the table below) and intracellular Ca^2+ was measured for 5 min prior to the addition of capsaicin to all wells to achieve a final concentration of eliciting an approximate 80% maximal response ([…]). EC50 or IC50 values were determined from dose-response studies. Curves were generated using the average of quadruplicate wells for each data point.

[1] = inhibition of capsaicin response

T1 sequence (Q8NER1 whole entry): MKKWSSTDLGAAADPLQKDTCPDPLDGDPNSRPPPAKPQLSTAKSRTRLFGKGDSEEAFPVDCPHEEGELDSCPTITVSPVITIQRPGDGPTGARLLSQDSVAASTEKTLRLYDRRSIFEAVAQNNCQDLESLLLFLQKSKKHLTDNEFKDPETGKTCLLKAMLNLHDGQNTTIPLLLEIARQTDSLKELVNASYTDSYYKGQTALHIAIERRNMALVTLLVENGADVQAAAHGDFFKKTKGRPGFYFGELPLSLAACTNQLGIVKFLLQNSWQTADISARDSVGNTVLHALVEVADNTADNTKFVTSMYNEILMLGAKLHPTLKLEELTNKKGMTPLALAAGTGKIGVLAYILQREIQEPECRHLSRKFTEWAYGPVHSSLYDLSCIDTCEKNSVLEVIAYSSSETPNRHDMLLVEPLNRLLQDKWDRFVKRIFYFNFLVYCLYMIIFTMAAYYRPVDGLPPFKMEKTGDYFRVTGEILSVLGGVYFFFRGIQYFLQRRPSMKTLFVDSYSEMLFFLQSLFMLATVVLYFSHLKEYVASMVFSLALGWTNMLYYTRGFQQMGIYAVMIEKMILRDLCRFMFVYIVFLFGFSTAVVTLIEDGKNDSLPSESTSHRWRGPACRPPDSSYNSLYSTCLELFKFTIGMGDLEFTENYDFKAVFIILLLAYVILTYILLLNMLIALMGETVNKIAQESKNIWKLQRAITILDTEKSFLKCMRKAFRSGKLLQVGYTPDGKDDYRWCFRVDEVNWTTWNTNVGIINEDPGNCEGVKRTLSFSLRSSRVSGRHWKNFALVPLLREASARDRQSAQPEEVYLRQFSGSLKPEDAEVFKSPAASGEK

IC50 [nM] | inhibition at 5 µM [1] [%] | Structure (SMILES) | also measured
– | – | Cc1cc(NC(=O)CCc2ccc(SC(F)(F)F)cc2)cnc1-n1cnc(Cl)c1Cl | h % I (1 μM) [1]: 41%
– | – | CC(C)(C)c1ccc(CCC(=O)Nc2ccccc2-c2ccccc2O)cc1 [Cpd 8] | h % I (10 μM) (inhibition of capsaicin response, 10 μM): 45%
109 | 97 | Cc1cc(NC(=O)CCc2ccc(C(C)(C)C)cc2)cc(C)c1-c1cccc(O)c1 [Cpd 86, 3-(4-tert-butyl-phenyl)-N-(3′-hydroxy-2,6-dimethyl-biphenyl-4-yl)-propionamide] | –
857 | 92 | Cc1cc(NC(=O)CCc2ccc(C(C)(C)C)cc2)cc(C)c1-c1ccc(O)cc1 [Cpd 87] | –
1710 | 84 | Cc1cc(NC(=O)CCc2ccc(C(C)(C)C)cc2)cc(C)c1-c1ccc(CO)cc1 [Cpd 88] | –
– | – | CC(C)(C)c1ccc(CCC(=O)Nc2cc(F)c(-c3cccc(O)c3)c(F)c2)cc1 [Cpd 89] | h % I (5 μM) [1]: 65%
– | – | CC(C)(C)c1ccc(CCC(=O)Nc2cc(F)c(-c3ccc(O)cc3)c(F)c2)cc1 [Cpd 90] | % Response Relative to EC80 of Capsaicin (6 μM) (agonist response, 6 μM): 17%
– | – | CC(C)(C)c1ccc(CCC(=O)Nc2cc(F)c(-c3ccc(CO)cc3)c(F)c2)cc1 [Cpd 91] | % Response Relative to EC80 of Capsaicin (6 μM) (agonist response, 6 μM): 22%
– | – | CC(C)(C)c1ccc(CCC(=O)Nc2ccc(-c3cccc(CO)c3)c(CO)c2)cc1 [Cpd 95] | Emax at 6 µM (agonist response, 6 μM, read-out: % Response Relative to EC80 of Capsaicin (6 μM)): 127%; EC50 (agonist-induced Ca2+ increase, read-out: h EC50): 248 nM; inhibition at 1 µM [1]: 40%
36 | 94 | Cc1cc(NC(=O)CCc2ccc(C(C)(C)C)cc2)cnc1-c1cccc(O)c1 [Cpd 161, 3-(4-tert-butyl-phenyl)-N-[6-(3-hydroxy-phenyl)-5-methyl-pyridin-3-yl]-propionamide] | –
126 | 99 | Cc1cc(NC(=O)CCc2ccc(C(C)(C)C)cc2)cnc1-c1ccc(O)cc1 [Cpd 162, 3-(4-tert-butyl-phenyl)-N-[6-(4-hydroxy-phenyl)-5-methyl-pyridin-3-yl]-propionamide] | –
97 | 100 | Cc1cc(NC(=O)CCc2ccc(C(C)(C)C)cc2)cnc1-c1ccc(CO)cc1 [Cpd 163, 3-(4-tert-butyl-phenyl)-N-[6-(4-hydroxymethyl-phenyl)-5-methyl-pyridin-3-yl]-propionamide] | –
193 | 99 | Cc1cc(NC(=O)CCc2ccc(C(C)(C)C)cc2)cnc1-c1cccnc1 [Cpd 164, 3-(4-tert-butyl-phenyl)-N-(3-methyl-[2,3′]bipyridinyl-5-yl)-propionamide] | –
73 | 99 | Cc1cc(NC(=O)CCc2ccc(C(C)(C)C)cc2)cnc1-c1ccncc1 [Cpd 165, 3-(4-tert-butyl-phenyl)-N-(3-methyl-[2,4′]bipyridinyl-5-yl)-propionamide] | –
2860 | 76 | Cc1cc(NC(=O)CCc2ccc(C(C)(C)C)cc2)cc(C)c1-c1cccnc1 [Cpd 166] | –
183 | 93 | Cc1cc(NC(=O)CCc2ccc(C(C)(C)C)cc2)cc(C)c1-c1ccncc1 [Cpd 167, 3-(4-tert-butyl-phenyl)-N-(3,5-dimethyl-4-pyridin-4-yl-phenyl)-propionamide] | –
1560 | 95 | CC(C)(C)c1ccc(CCC(=O)Nc2cc(F)c(-c3cccnc3)c(F)c2)cc1 [Cpd 168] | –
– | – | CC(C)(C)c1ccc(CCC(=O)Nc2ccc(-c3cccnc3)c(CO)c2)cc1 [Cpd 170] | % Response Relative to EC80 of Capsaicin (6 μM) (agonist response, 6 μM): 101%; h % I (1 μM) [1]: 37%
142 | – | Cc1cc(NC(=O)CCc2ccc(C(C)(C)C)cc2)ccc1-c1ccccn1 [Cpd 172] | –
388 | – | CC(C)(C)c1ccc(CCC(=O)Nc2ccc(-c3ccccn3)c(F)c2)cc1 [Cpd 173] | –
2890 | – | Cc1cc(NC(=O)CCc2ccc(C(C)(C)C)cc2)cc(C)c1-c1ccccn1 [Cpd 174] | –

IC50 [nM] | inhibition at 5 µM [1] [%] | Structure (SMILES) | also measured
295 | – | Cc1cc(NC(=O)CCc2ccc(C(C)(C)C)cc2)cnc1-c1ccccn1 [Cpd 177] | –
400 | – | CC(C)(C)c1ccc(CCC(=O)Nc2ccc(-c3cccnc3)c(F)c2)cc1 [Cpd 181] | –
– | – | CC(C)(C)c1ccc(CCC(=O)Nc2cnc(-c3ccccc3O)cn2)cc1 [Cpd 183] | h % I (1 μM) [1]: 1%; h % I (5 μM) [1]: 9%
– | – | CC(C)(C)c1ccc(CCC(=O)Nc2cnc(-c3cccc(O)c3)cn2)cc1 [Cpd 184] | h % I (1 μM) [1]: 1%; h % I (5 μM) [1]: 14%
– | – | CC(C)(C)c1ccc(CCC(=O)Nc2cnc(-c3ccc(O)cc3)cn2)cc1 [Cpd 185] | h % I (1 μM) [1]: 1%; h % I (5 μM) [1]: 24%
– | – | CC(C)(C)c1ccc(CCC(=O)Nc2cnc(-c3ccc(CO)cc3)cn2)cc1 [Cpd 186] | h % I (1 μM) [1]: 6%; h % I (5 μM) [1]: 39%
– | – | CC(C)(C)c1ccc(CCC(=O)Nc2cnc(-c3cccnc3)cn2)cc1 [Cpd 187] | h % I (1 μM) [1]: 11%; h % I (5 μM) [1]: 15%
– | – | CC(C)(C)c1ccc(CCC(=O)Nc2cnc(-c3ccncc3)cn2)cc1 [Cpd 188] | h % I (1 μM) [1]: 4%; h % I (5 μM) [1]: 33%
48 | – | Cc1cn(-c2ccc(NC(=O)CCc3ccc(S(=O)(=O)C(F)(F)F)cc3)cc2C(F)(F)F)cn1 [Cpd 209] | inhibition at 1 µM [1]: 100%
64.5 | 100 | O=C(CCc1ccc(C(F)(F)F)cc1)Nc1cnc(-c2ccccc2O)c(C(F)(F)F)c1 [Cpd 213] | –
100 | – | Cc1cn(-c2ccc(NC(=O)CCc3ccc(SC(F)(F)F)cc3)cc2C(F)(F)F)cn1 [Cpd 219] | inhibition at 1 µM [1]: 100%
137 | – | Cc1cn(-c2ccc(NC(=O)CCc3ccc([S+]([O-])C(F)(F)F)cc3)cc2C(F)(F)F)cn1 (stereo not drawn) [Cpd 222] | inhibition at 1 µM [1]: 100%
340 | – | O=C(CCc1ccc(C(F)(F)F)cc1)Nc1ccc(-n2cnc(C(F)(F)F)c2)c(C(F)(F)F)c1 [Cpd 238, 3-(4-Trifluoromethyl-phenyl)-N-[3-trifluoromethyl-4-(4-trifluoromethyl-imidazol-1-yl)-phenyl]-propionamide] | inhibition at 1 µM [1]: 100%
358 | – | O=C(CCc1ccc(SC(F)(F)F)cc1)Nc1ccc(-n2cnc(Cl)c2Cl)c(C(F)(F)F)c1 [Cpd 239] | inhibition at 1 µM [1]: 88%
440 | – | O=C(CCc1ccc(F)cc1)Nc1ccc(-n2cnc(Cl)c2Cl)c(C(F)(F)F)c1 [Cpd 243] | inhibition at 1 µM [1]: 92%
452 | – | O=C(CCc1ccc([S+]([O-])C(F)(F)F)cc1)Nc1ccc(-n2cnc(Cl)c2Cl)c(C(F)(F)F)c1 (stereo not drawn) [Cpd 244] | inhibition at 1 µM [1]: 85%
549 | 97 | Cc1cc(NC(=O)CCc2ccc(C(F)(F)F)cc2)cnc1-n1ccnc1 [Cpd 247] | –
602 | – | O=C(CCc1ccc(C(F)(F)F)cn1)Nc1ccc(-n2cnc(Cl)c2Cl)c(C(F)(F)F)c1 [Cpd 248] | inhibition at 1 µM [1]: 83%
613 | 100 | O=C(CCc1ccc(C(F)(F)F)cc1)Nc1cnc(-c2cccnc2)c(C(F)(F)F)c1 [Cpd 249] | –
– | – | O=C(CCc1ccc(F)c(F)c1)Nc1ccc(-n2ccnc2)c(C(F)(F)F)c1 [Cpd 256] | inhibition at 1 µM [1]: 42%
– | – | Cc1cc(NC(=O)CCc2ccc(F)c(F)c2)cnc1-n1cnc(Cl)c1Cl [Cpd 257] | inhibition at 1 µM [1]: 41%

Structure (SMILES) | IC50 [nM] | inhibition at 5 µM [1] [%] | also measured
O=C(/C=C/c1ccc(C(F)(F)F)cn1)Nc1ccc(-n2cnc(Cl)c2Cl)c(C(F)(F)F)c1 [Cpd 235, trans-N-[4-(4,5-Dichloro-imidazol-1-yl)-3-trifluoromethyl-phenyl]-3-(5-trifluoromethyl-pyridin-2-yl)-acrylamide] | 294 | – | inhibition at 1 µM [1]: 99%
